According to patent US8022072B2, “Azolylmethylidenehydrazine derivative and use thereof” (Kaken Pharmaceutical Co., Ltd., priority 2007, dated 2011):
Converted amounts (≈) assume the structure as drawn.

Legend:
[1] = system: Trichophyton rubrum KD-107; assay: Antifungal activity evaluation test, MIC, Trichophyton rubrum KD-107; type: cell-based; settings: KD107, 168 h, Sabouraud Dextrose Broth, 30° C., 7 days, visual, read-out: MIC T. rub. KD-107
Description: (§1) The minimum inhibitory concentration (MIC) for Trichophyton mentagrophytes, Trichophyton rubrum, and Malassezia furfur was measured according to the following procedure. • Test compound solution: A test compound was dissolved in dimethyl sulfoxide (DMSO) at a concentration of 5 mg/mL as a stock solution. […] Then, as a test medium, a fungal solution of Trichophyton species was 100-fold diluted with Sabouraud Dextrose Broth (Difco), and a fungal solution of Malassezia furfur IFO-0656 was 100-fold diluted with MU medium to give each inoculum (2×10^4 cells/mL). • Measurement of MIC of Trichophyton fungi: Sabouraud Dextrose Broth (Difco) was dispensed by 100 μL to a given well of a 96 well flat microplate. Then, a test compound solution (2 μL) was added, and the mixture was thoroughly mixed with a plate mixer. A fungal solution (100 μL) was inoculated and cultured at 30° C. for 7 days. The presence or absence of the cell growth was visually observed, and the minimum medicament concentration at which the cell growth was prevented was taken as MIC (μg/mL). • Measurement of MIC of Malassezia furfur: Since the urease activity of this fungus and the fungus growth rate are co-related, MIC was evaluated by the following method using urease activity as an index. MU medium was dispensed by 100 μL to a given well of a 96 well flat microplate. Then, a test compound solution (2 μL) was added, and the mixture was thoroughly mixed with a plate mixer. A fungal solution (100 μL) was inoculated and cultured at 30° C. The culture was stopped on day 4 or 5 of culture when the color tone of the MU medium changes from yellow to red in visual observation of the fungus growth in a well free of addition of a test substance. Then the plate was stirred until the fungus became uniform, and the urease activity was measured based on the measurement of absorbance at 550 nm using a plate reader.

[2] = system: Trichophyton mentagrophytes KD-04; assay: Antifungal activity evaluation test, MIC, Trichophyton mentagrophytes KD-04; type: cell-based; settings: KD04, 168 h, Sabouraud Dextrose Broth, 30° C., 7 days, visual, read-out: MIC T. men. KD-04
Description: as §1

[3] = system: Malassezia furfur IFO-0656; assay: Antifungal activity evaluation test, MIC by urease activity, Malassezia furfur IFO-0656; type: cell-based; settings: IFO0656, 96 h, MU medium, 30° C., day 4 or 5, urease activity of 20% or below, read-out: MIC M. fur. IFO-0656
Description: as §1

[4] = system: Trichophyton mentagrophytes KD-04; assay: Influence of keratin addition on anti-Trichophyton activity; type: cell-based; settings: Trichophyton mentagrophytes, KD04, 168 h, 30° C., 7 days
Description: The MIC increase rate by the addition of keratin to a medium was measured by the following procedure. • Test compound solution: A test compound was dissolved in dimethyl sulfoxide (DMSO) at a concentration of 5 mg/mL as a stock solution. Diluting this solution with DMSO, a 2-fold dilution series was prepared. • Test strain: Trichophyton mentagrophytes KD-04 was used. Preparation of Fungal Inoculum: the Above-Mentioned Strain was suspended in 0.05% Tween 80-containing physiological saline, and adjusted to a fungus concentration of 2×10^6 cells/mL using a counting chamber. […] The physiological saline was removed, and the mixture was further washed once with physiological saline (3 mL). The physiological saline was removed, and a test compound solution (10 μL) and Sabouraud Dextrose Broth (Difco) (500 μL) were added to keratin, and the mixture was sufficiently stirred. Then, inoculum (500 μL) of T. mentagrophytes KD-04 was added, and the mixture was cultured at 30° C. for 7 days. As a comparison control, an experiment similar to the above was performed under conditions free of keratin addition.

[5] = system: Trichophyton mentagrophytes SM-110; assay: Antifungal activity evaluation test, MIC, Trichophyton mentagrophytes SM-110; type: cell-based; settings: SM110, 168 h, Sabouraud Dextrose Broth, 30° C., 7 days, visual, read-out: MIC T. men. SM-110
Description: as §1

[6] = system: Trichophyton rubrum KD-101; assay: Antifungal activity evaluation test, MIC, Trichophyton rubrum KD-101; type: cell-based; settings: KD101, 168 h, Sabouraud Dextrose Broth, 30° C., 7 days, visual, read-out: MIC T. rub. KD-101
Description: as §1

TNCB-induced dermatitis = assay: 2,4,6-Trinitrochlorobenzene (TNCB)-induced dermatitis model, ear edema; type: in vivo, male BALB/c mouse; settings: test compound 1 w/v % (FK506 0.1 w/v %), 20 μL applied to auricle, 24 hours after induction
Description: (§2) The test compound was adjusted to 1 w/v % when in use with a solvent (acetone:olive oil=1:1, v/v)) and put to use. FK506 (control substance) was adjusted to 0.1 w/v % and used.
The fur on the abdomen of male BALB/c mouse was shaved with a hair clipper, and 100 μL of 7 w/v % TNCB sensitizing liquid (solvent was acetone:olive oil=4:1, v/v) was applied. Six days after the sensitization, the thickness of the right auricle was measured with a micrometer (pre-value). After the measurement, 10 μL of 1 w/v % TNCB challenge liquid (solvent was acetone:olive oil=1:9, v/v) was applied to the inside of the right auricle to induce ear edema. About 5 minutes after the application of the challenge liquid, 20 μL of the test compound was applied to the outside of the auricle.
After 24 hours from the induction of ear edema, the thickness of the right auricle was measured by a method similar to the pre-value (post-value). The difference between the post-value and the pre-value of ear edema by each test compound was determined, based on which the inhibition rate was calculated. The activity of each test compound was calculated with the ear edema inhibition rate of FK506 as 1.0 (ear edema inhibition rate of each test compound/ear edema inhibition rate of FK506).

OVA-induced dermatitis = assay: Ovalbumin (OVA)-induced dermatitis model, ear edema; type: in vivo, male ICR mouse; parameters: key: ratio of compound's ear edema inhibition rate to FK506's (FK506 = 1.0); settings: test compound 1 w/v % (FK506 0.1 w/v %), 20 μL applied to auricle, 24 hours after induction
Description: as §2
Male ICR mouse was sensitized by the administration of 0.2 mL of OVA-hydroxide aluminum gel suspension to the abdominal cavity. After 14 days from the sensitization, the thickness of the right auricle was measured with a micrometer (pre-value). After the measurement, 20 μL of 0.5 μg/mL OVA challenge liquid (solvent was physiological saline) was subcutaneously administered to the inside of the auricle to induce ear edema. About 5 minutes after the administration of the challenge liquid, 20 μL of the test compound was applied to the outside of the auricle. After 24 hours from the induction of ear edema, the thickness of the right auricle was measured by a method similar to the pre-value (post-value). The difference between the post-value and the pre-value of ear edema by each test compound was determined, based on which the inhibition rate was calculated. The activity of each test compound was calculated with the ear edema inhibition rate of FK506 as 1.0 (ear edema inhibition rate of each test compound/ear edema inhibition rate of FK506).

[7] = T. mentagrophytes KD-04, free of keratin addition, read-out: MIC SDB alone
[8] = T. mentagrophytes KD-04, keratin 50 mg added, read-out: MIC SDB + keratin

SMILES	MIC [1] [µg/mL]	MIC [2] [µg/mL]	MIC [3] [µg/mL]	MIC [4, 7] [µg/mL]	MIC [4, 8] [µg/mL]	MIC [5] [µg/mL]	MIC [6] [µg/mL]	TNCB-induced dermatitis, with ear edema inhibition rate of FK506 as 1.0 (TNCB-induced dermatitis)	OVA-induced dermatitis, with ear edema inhibition rate of FK506 as 1.0 (OVA-induced dermatitis)
CCc1ccccc1C(=NN(C)C)n1ccnc1 [Compound No. 4, N′-[1-(2-ethylphenyl)-1-imidazol-1-ylmethylidene]-N,N-dimethylhydrazine]	0.78 (≈ 3.22 µM)	0.39 (≈ 1.61 µM)	> 25	0.39 (≈ 1.61 µM)	0.78	0.78 (≈ 3.22 µM)	0.78 (≈ 3.22 µM)		
CCCCCCc1ccccc1C(=NN(C)C)n1ccnc1 [Compound No. 5, N′-[1-(2-hexylphenyl)-1-imidazol-1-ylmethylidene]-N,N-dimethylhydrazine]								0.6	1.2
CCOc1ccccc1C(=NN(C)C)n1ccnc1 [Compound No. 16, N′-[1-(2-ethoxyphenyl)-1-imidazol-1-ylmethylidene]-N,N-dimethylhydrazine]	0.2 (≈ 0.774 µM)	0.2 (≈ 0.774 µM)	12.5 (≈ 48.4 µM)	0.39 (≈ 1.51 µM)	0.39	0.39 (≈ 1.51 µM)	0.2 (≈ 0.774 µM)		
CCCOc1ccccc1C(=NN(C)C)n1ccnc1 [Compound No. 17, N′-[1-imidazol-1-yl-1-(2-propoxyphenyl)methylidene]-N,N-dimethylhydrazine]	0.2 (≈ 0.734 µM)	0.2 (≈ 0.734 µM)	3.13 (≈ 11.5 µM)	0.05 (≈ 0.184 µM)	0.1	0.39 (≈ 1.43 µM)	0.2 (≈ 0.734 µM)		
C=CCOc1ccccc1C(=NN(C)C)n1ccnc1 [Compound No. 20, N′-[1-(2-allyloxyphenyl)-1-imidazol-1-ylmethylidene]-N,N-dimethylhydrazine]	0.1 (≈ 0.37 µM)	0.2 (≈ 0.74 µM)	12.5 (≈ 46.2 µM)	0.1 (≈ 0.37 µM)	0.2	0.39 (≈ 1.44 µM)	0.1 (≈ 0.37 µM)		
C/C=C\Oc1ccccc1C(=NN(C)C)n1ccnc1 [Compound No. 21, N′-[1-imidazol-1-yl-1-(2-(Z)-propenyloxyphenyl)methylidene]-N,N-dimethylhydrazine]	0.2 (≈ 0.74 µM)	0.2 (≈ 0.74 µM)	6.25 (≈ 23.1 µM)	0.2 (≈ 0.74 µM)	0.2	0.39 (≈ 1.44 µM)	0.2 (≈ 0.74 µM)		
CCCCOc1ccccc1C(=NN(C)C)n1ccnc1 [Compound No. 23, N′-[1-(2-butoxyphenyl)-1-imidazol-1-ylmethylidene]-N,N-dimethylhydrazine]	0.1 (≈ 0.349 µM)	0.1 (≈ 0.349 µM)	0.39 (≈ 1.36 µM)	0.1 (≈ 0.349 µM)	0.2	0.2 (≈ 0.698 µM)	0.1 (≈ 0.349 µM)		
CN(C)N=C(c1ccccc1OC(F)(F)F)n1ccnc1 [Compound No. 32, N′-[1-imidazol-1-yl-1-(2-trifluoromethoxyphenyl)methylidene]-N,N-dimethylhydrazine]	0.39 (≈ 1.31 µM)	0.2 (≈ 0.671 µM)	6.25 (≈ 21 µM)	0.1 (≈ 0.335 µM)	0.2	0.78 (≈ 2.62 µM)	0.39 (≈ 1.31 µM)		
CN(C)N=C(c1ccccc1OC(F)(F)C(F)F)n1ccnc1 [Compound No. 33, N′-[1-imidazol-1-yl-1-[2-(1,1,2,2-tetrafluoroethoxy)phenyl]methylidene]-N,N-dimethylhydrazine]	0.39 (≈ 1.18 µM)	0.78 (≈ 2.36 µM)	6.25 (≈ 18.9 µM)	0.39 (≈ 1.18 µM)	0.39	1.56 (≈ 4.72 µM)	0.78 (≈ 2.36 µM)		
CN(C)N=C(c1ccccc1OCCc1ccc(N(C)C)cc1)n1ccnc1 [Compound No. 60, N′-[1-imidazol-1-yl-1-[2-(4-dimethylaminophenethyloxy)phenyl]methylidene]-N,N-dimethylhydrazine]	0.1 (≈ 0.265 µM)	0.2 (≈ 0.53 µM)	0.2 (≈ 0.53 µM)	0.1 (≈ 0.265 µM)	0.2	0.39 (≈ 1.03 µM)	0.2 (≈ 0.53 µM)		
COc1ccc(OCCOc2ccccc2C(=NN(C)C)n2ccnc2)cc1 [Compound No. 69, N′-[1-imidazol-1-yl-1-[2-[2-(4-methoxyphenoxy)ethoxy]phenyl]methylidene]-N,N-dimethylhydrazine]	0.05 (≈ 0.131 µM)	0.2 (≈ 0.526 µM)	1.56 (≈ 4.1 µM)	0.2 (≈ 0.526 µM)	0.39	0.39 (≈ 1.03 µM)	0.05 (≈ 0.131 µM)		
CCSc1ccccc1C(=NN(C)C)n1ccnc1 [Compound No. 80, N′-[1-(2-ethylthiophenyl)-1-imidazol-1-ylmethylidene]-N,N-dimethylhydrazine]	0.39 (≈ 1.42 µM)	0.2 (≈ 0.729 µM)	12.5 (≈ 45.6 µM)	0.78 (≈ 2.84 µM)	0.78	0.78 (≈ 2.84 µM)	0.39 (≈ 1.42 µM)		
CCCSc1ccccc1C(=NN(C)C)n1ccnc1 [Compound No. 81, N′-[1-imidazol-1-yl-1-(2-propylthiophenyl)methylidene]-N,N-dimethylhydrazine]	0.2 (≈ 0.693 µM)	0.2 (≈ 0.693 µM)	3.13 (≈ 10.9 µM)	0.39 (≈ 1.35 µM)	0.39	0.39 (≈ 1.35 µM)	0.39 (≈ 1.35 µM)		
CN(C)N=C(c1cccn1Cc1ccccc1)n1ccnc1 [Compound No. 105, N′-[1-(1-benzylpyrrol-2-yl)-1-imidazol-1-ylmethylidene]-N,N-dimethylhydrazine]	0.2 (≈ 0.682 µM)	0.2 (≈ 0.682 µM)	25 (≈ 85.2 µM)	0.39 (≈ 1.33 µM)	0.78	0.39 (≈ 1.33 µM)	0.2 (≈ 0.682 µM)		
CCC(C)n1ncn(-c2ccc(N3CCN(c4ccc(OCC5COC(Cn6cncn6)(c6ccc(Cl)cc6Cl)O5)cc4)CC3)cc2)c1=O (stereo not shown) [ITCZ, itraconazole, reference compound]	0.05 (≈ 0.0709 µM)	0.1 (≈ 0.142 µM)	0.05 (≈ 0.0709 µM)	0.05 (≈ 0.0709 µM)	25	0.2 (≈ 0.283 µM)	0.1 (≈ 0.142 µM)		
